Measurements taken from patent publication US9115123B2, “Preventive or therapeutic agent for pain associated with herpes zoster in acute phase” (Kyushu University, priority 2010, dated 2015).

What was measured:
[1] = system: HSV-1 infected mice (zoster-associated pain); experiment: Mouse model of herpes zoster, pain-associated reaction to paintbrush stimulus after oral administration; format: in vivo
Source text: Epidermis of the right hind leg (lower part of knee joint) of shaven female C57BL/6J mice was chopped with a bundle of ten 26G injection needles, and coated with a solution (1×10^6 pfu/site) of herpes simplex virus Type I (HSV-1), which as well as varicella zoster virus, belongs to Herpesviridae (family) (Takasaki I, et al., Anesthesiology, 2002, 96:1168-1174). Seven days after infection, the spinal cord was collected after perfusion of 4% neutral buffered paraformaldehyde, replaced with 30% sucrose solution, embedded with OCT compound to prepare frozen slices. A specimen in cross section was prepared at the fifth lumbar level of the spinal cord, and was subjected to a fluorescent double immunostaining according to Alexa Fluor 488, 546 using OX42 antibody, which has widely been used as a microglia marker, and P2X4 receptor antibody. […] The pain-associated reaction of the hindpaw on the HSV-1 infection side was measured and evaluated referring to the response to a contact stimulant using a paint-brush. The mouse was placed into a cage for measurement, and accustomed to the environment for 1 hour or more. The plantar surface of the right hindpaw was vertically stroked with the paintbrush along the direction from toe to heal, and this was repeated six times at intervals of several seconds. The pain reaction was evaluated as follows: • Score 0: No reaction • Score 1: Lifting of hind leg • Score 2: Sharp evasion reaction and flinching of hind leg Each individual pain score was calculated by averaging six scores.

P2X4 receptor = target: T1, P2X4 receptor (Homo sapiens, UniProt Q99571); conditions: reported in cited WO documents and Nagata K, Imai T et al., Molecular Pain, 2009, 5:20; cited from earlier work
T1 sequence (Q99571 1-388): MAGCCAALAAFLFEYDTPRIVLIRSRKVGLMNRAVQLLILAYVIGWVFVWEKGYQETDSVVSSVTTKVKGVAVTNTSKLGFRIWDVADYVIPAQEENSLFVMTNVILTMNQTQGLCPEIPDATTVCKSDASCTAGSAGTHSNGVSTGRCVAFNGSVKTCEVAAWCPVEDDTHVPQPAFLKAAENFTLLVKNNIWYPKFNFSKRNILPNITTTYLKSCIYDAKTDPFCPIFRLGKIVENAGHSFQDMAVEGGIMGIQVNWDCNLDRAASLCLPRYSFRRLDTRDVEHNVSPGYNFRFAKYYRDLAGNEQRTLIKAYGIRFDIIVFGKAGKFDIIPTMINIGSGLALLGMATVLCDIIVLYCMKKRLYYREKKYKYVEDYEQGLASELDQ

[2] = system: HSV-1 infected mice (zoster-associated pain in acute phase); experiment: Mouse model of herpes zoster, pain-associated reaction to von Frey filament (0.16 g) after intrathecal administration; format: in vivo; conditions: five to seven days after infection
Source text: Epidermis of the right hind leg (lower part of knee joint) of shaven female C57BL/6J mice was chopped with a bundle of ten 26G injection needles, and coated with a solution (1×10^6 pfu/site) of herpes simplex virus Type I (HSV-1), which as well as varicella zoster virus, belongs to Herpesviridae (family) (Takasaki I, et al., Anesthesiology, 2002, 96:1168-1174). Seven days after infection, the spinal cord was collected after perfusion of 4% neutral buffered paraformaldehyde, replaced with 30% sucrose solution, embedded with OCT compound to prepare frozen slices. […]
The effect of P2X4 receptor antagonism on zoster-associated pain in acute phase was studied using the mouse model of herpes zoster described in Example 2. […] Threshold of the pain was measured before administration of the drug (AM 9:30 to 10:00 and PM 5:30 to 6:00). Pain-associated reaction on the HSV-1 infection side hindpaw was measured using von Frey Filament (0.16 g). […] The pain reaction was evaluated as follows: • Score 0: No reaction • Score 1: Lifting of hind leg • Score 2: Sharp evasion reaction and flinching of hind leg
Each individual pain score was calculated by averaging six scores. The allodynia score (%) was calculated as the average score of each group by counting the maximum reaction score 2 as 100%.
Threshold of the pain was measured before administration of the drugs (AM 9:30 to 10:00 and PM 5:30 to 6:00).

Row | Structure (SMILES) | threshold of the pain (paintbrush pain score) ([1]; seven days after infection (acute phase), 30 mg/kg oral, from 1 hour to 4 hours after administration) | threshold of the pain (paintbrush pain score) ([1]; seven days after infection (acute phase), 50 mg/kg oral, from 30 minutes to 8 hours after administration) | threshold of the pain (paintbrush pain score) ([1]; thirty days after infection (postherpetic neuralgia), 30 mg/kg oral) | threshold of the pain (paintbrush pain score) ([1]; thirty days after infection (postherpetic neuralgia), 50 mg/kg oral, 30 minutes, 1 hour and 4 hours after administration) | P2X4 receptor antagonism / inhibition (in words) (P2X4 receptor) | threshold score of the pain (von Frey, allodynia score) ([2]; 10 pmol/mouse intrathecal twice a day) | threshold score of the pain (von Frey, allodynia score) ([2]; 30 pmol/mouse intrathecal twice a day)
1 | Fc1ccc([C@@H]2CCNC[C@H]2COc2ccc3c(c2)OCO3)cc1 [Paroxetine] | significantly improved | continuously improved | did not show any significant improvement | significant improvement was observed | functions as an inhibitor of P2X4 receptor | – | –
2 | O=C1CC(=O)N(c2cccc(-c3noc(=S)[nH]3)c2)c2ccc3ccccc3c2N1.[Na] [Compound A, 5-[3-(5-thioxo-4H-[1,2,4]oxadiazol-3-yl)phenyl]-1H-naphtho[1,2-b][1,4]diazepine-2,4(3H,5H)-dione sodium salt] | – | – | – | – | – | significantly suppressed | significantly suppressed
